# Experimental data from patent US20210108199A1, “Treatment for aggressive cancers by targeting C9ORF72” (The Trustees of Columbia University in the City of New York, priority 2017, published 2021).
# Experiments:
# Type in all cases: cell-based
# U87 cells [1] = assay: TUNEL assay for DNA breaks; conditions: vs control
# Method: Cells were treated with control and C9 siRNA for three days. On day three, cells were collected for TUNEL assay using the FlowTACS kit (TREVIGEN™, 4817-60-K) according to manufacturer's instructions to detect DNA fragmentation. For a positive control, DNA damage was induced using doxorubicin. Data were collected on a FACSCalibur™ flow cytometer (Becton Dickinson™) and data analysis performed on FlowJo™.
# ROS can cause oxidative DNA damage. Since elevated ROS levels were observed under C9 KD conditions, it may cause increase in DNA damage. To test this hypothesis, a TUNEL assay was used to measure DNA breaks. […] In addition to C9KD, U87 cells were treated with a known chemotherapeutic DNA damage-inducing drug to serve as a positive control for DNA damage (see FIG. 23). FIG. 23 presents data for the TUNEL assay of U87 cells treated as described for FIG. 21 and for positive DNA-damage control with 0.5 μM doxorubicin (DOX). FIG. 23A presents data for the percentage of cells with DNA fragmentation (shown by DNA damage) comparing control (siCtrl) C9 KD (siC9; SEQ ID NO:631) and DOX-treated cells as measured by FACS analysis. […] FIG. 24 is a set of graphs showing data for cells treated as described for FIG. 23, with the exception of using a different C9 siRNA, indicated as siC9 #2 (SEQ ID NO:633).
# p53 null U87 cells = assay: Mitochondrial imaging in p53 null U87 clones; conditions: p53 KO U87 clones KO #4 and KO #9
# Description: C9 then was knocked down in two p53 KO U87 cells lines which were imaged to show whether mitochondrial disorganization depends on p53. […] FIG. 38 is a set of confocal microscopy images of two p53 null U87 clones (KO #4 and KO #9) treated with control and C9 siRNA, stained with Mitotracker red.
# p53 = assay: Western blot of phospho-p53, p53 and p21; conditions: U87 cells
# Method: For Western blot analysis, cells were lysed with lysis buffer (20 mM sodium phosphate (pH 7.0), 250 mM NaCl, 30 mM sodium pyrophosphate, 0.1% Nonidet™ P-40, 5 mM EDTA, 10 mM NaF, 0.1 mM Na3VO4, and 1 mM PMSF) supplemented with complete protease inhibitors (Roche™) and homogenized by passage through a 28 gauge needle. Protein concentration was measured with a Bio-Rad™ protein assay dye reagent and results were read using a spectrophotometer (BiophotometerPlus™ by Eppendorf™). Protein extracts were resolved by SDS PAGE on gradient (Thermo Fisher™) or 12% gels. Proteins were then electrotransferred at 350 mA for 80 minutes onto a PVDF membrane (Immobilon-P PVDF). Membranes were blocked with PBST with 5% milk and 1% BSA for 30 minutes. Quantitation of blots was performed Image Studio Lite software (LI-COR Biosciences™).
# One of the responses to DNA damage is activation of p53 by ATM. Upon DNA damage, ATM activation leads to p53 phosphorylation, which activates p53 as a transcription factor. Since increased DNA damage was observed upon C9 KD, whether p53 is activated in C9 depleted cells was investigated. First, total p53 levels were measured in U87 cells treated with control and two independent siRNAs against C9. […] Then, the levels of phosphorylated (active) p53 (at s15) was measured. Phosphorylation of s15 on p53 was increased in both C9 siRNA samples.
# U87 cells [2] = assay: ptfLC3 fluorescent autophagy marker imaging; conditions: U87 cells transfected with ptfLC3
# Method: Cells were plated on coverslips in 60-mm culture dishes, and after 48 hours washed twice with PBS followed by incubation with 4% paraformaldehyde (Sigma™) for 20 minutes. Cells then were washed three times with PBS, incubated with PBS/0.5% Triton™ X-100 for 1½ minutes, washed once with PBS and then blocked with 0.5% bovine serum albumin (Sigma™) in PBS for 30 minutes at room temperature before treatment with 100 μL of the diluted primary antibodies (1:1000) for 1 hour at room temperature. The coverslips were then washed three times with PBS and stained by incubation with 100 μL of diluted (1:100) secondary antibody (1:100). The coverslips were then washed three times with PBS and mounted on coverslips with a mounting media containing DAPI stain (Vectashield™, H-1200). Coverslips were imaged at room temperature (about 22° C.) using 40×, 1.3 NA or 63×, 1.4 NA oil immersion lenses on a confocal microscope (LSM 700; Carl Zeiss™).
# To this end, C9 was knocked down in U87 cells and employed a fluorescent autophagy marker ptfLC3 to mark autophagosomes and autophagolysosomes. […] The white arrows show vacuoles and the white box represents a zoom in of the cell area with vacuoles. […] The white box here represents a zoom in of the cell area with vacuoles, nuclei stained with DAPI (blue). FIG. 4B is a WB showing LAMP1 levels after control (siCtrl) and C9 KD (siC9; SEQ ID NO:631).
# U87 cells [3] = assay: ROS detection by dihydroethidium; conditions: day three
# Method: ROS detection in U87 cells was performed using 2′,7′-dichlorofluorescin diacetate (Sigma™, D883). Cells were treated with control and siC9 siRNA. After 3 days, cells were washed with phenol red-free DMEM (ThermoFisher™, 21063029). Cells then were incubated with 20 μM DCFDA for 40 minutes at 37° C. Cells then were washed with phenol red-free DMEM. Then signal was read at Ex/Em: 485/535 nm using Synergy H1 Hybrid™ Multi-Mode Microplate reader by Biotek™. Quantitation was done after removal of background. Additionally, dihydroethidium (EMD Millipore™ 309800) was used. U87 cells were treated as described above. At day 3, cells were incubated with DHE for 30 minutes at 37° C. […]
# For the above reasons, whether C9 KD may lead to increase ROS production was investigated. […] C9 was knocked down in U87 cells with two independent siRNAs and the ROS levels were measured after KD. […]
# For the data presented in FIG. 21, U87 cells were treated with control (siCtrl) and C9 (siC9; SEQ ID NO:631) siRNA and on day three ROS levels measured by DCFDA and dihydroethidium. FIG. 21A presents data for fluorescent intensity between control (siCtrl) and C9 KD (siC9) cells as measured by DCFDA. […] FIG. 21C presents fluorescent intensity quantitation for about 30 cells from the dihydroethidium experiments (n=3). Statistical significance was assessed by an unpaired t-test: NS P>0.05, *P≤0.05, **P≤0.01, ***P≤0.001 ****P≤0.0001. […]
substance,measurement,setting,value
"siC9: siRNA targeting C9 mRNA: UUAAUGAAACAAUAAUCACUC (SEQ ID NO:631; sense) and GUGAUUAUUGUUUCAUUAAUC (SEQ ID NO:632; antisense) (listed as RNA, chemistry not given here)",DNA breaks (TUNEL),U87 cells [1],increase in DNA breaks
same,mitochondrial organization,p53 null U87 cells,caused mitochondrial disorganization
same,p21 protein levels,p53,increased p21 protein levels
same,phosphorylation of s15 on p53,p53,increased
same,total p53 levels,p53,elevates p53 levels
same,LC3 staining of vacuoles,U87 cells [2],not stained by LC3
same,fluorescence of autophagolysosomes,U87 cells [2],increase fluorescence
same,ROS (dihydroethidium),U87 cells [3],significant upregulation of ROS
